Laboratory results reported in article PMC5182053 (Science Advances, 2016).

Target: α-enolase (Homo sapiens, UniProt P06733)
Experiment: microscale thermophoresis with labeled recombinant protein
Assay type: binding

Chain of α-enolase (P06733 2-434): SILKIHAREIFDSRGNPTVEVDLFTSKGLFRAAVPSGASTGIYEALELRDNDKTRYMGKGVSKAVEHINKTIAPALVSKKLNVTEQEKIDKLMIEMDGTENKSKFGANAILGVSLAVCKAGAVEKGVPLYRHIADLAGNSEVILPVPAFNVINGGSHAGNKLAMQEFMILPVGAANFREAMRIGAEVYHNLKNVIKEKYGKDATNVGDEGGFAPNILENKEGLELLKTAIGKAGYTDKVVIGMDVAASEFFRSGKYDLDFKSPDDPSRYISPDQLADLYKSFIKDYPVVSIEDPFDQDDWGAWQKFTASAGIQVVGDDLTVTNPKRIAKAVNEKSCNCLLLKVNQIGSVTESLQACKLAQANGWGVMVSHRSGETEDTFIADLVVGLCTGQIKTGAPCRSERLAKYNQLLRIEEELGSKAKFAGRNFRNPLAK

**Q.** How did the Kd turn out when `CCOC(=O)Oc1c(OC)cc(C(=O)O[C@@H]2C[C@@H]3CN4CCc5c([nH]c6cc(OC)ccc56)[C@H]4C[C@@H]3[C@H](C(=O)OC)[C@H]2OC)cc1OC` [syrosingopine] was run?
**A.** 1.25 µM
